Source: patent US9850283B2, “Macrocyclic inhibitors of the PD-1/PD-L1 and CD80(B7-1)/PD-L1 protein/protein interactions” (BRISTOL-MYERS SQUIBB COMPANY, priority 2013, dated 2017)
Read-outs that look alike come from different tables or passages of the source. Positions of bridges follow the written chain, without caps; N, C: chain ends. Non-standard residues stand in square brackets, D forms with d. Residues, ends and D or L forms follow the SMILES beside them. ξ: configuration not given here. Phe(3,4,5-F3) = N[C@@H](Cc1cc(F)c(F)c(F)c1)C(=O)O; Phe(3-CF3) = N[C@@H](Cc1cccc(C(F)(F)F)c1)C(=O)O; Phe(F5) = N[C@@H](Cc1c(F)c(F)c(F)c(F)c1F)C(=O)O; Phe(4-CH2NH2) = NCc1ccc(C[C@H](N)C(=O)O)cc1; Phe(3-OMe) = COc1cccc(C[C@H](N)C(=O)O)c1; Phe(4-Cl) = N[C@@H](Cc1ccc(Cl)cc1)C(=O)O; Bta = N[C@@H](Cc1csc2ccccc12)C(=O)O; Hyp = O=C(O)[C@@H]1C[C@@H](O)CN1; NMeF = CN[C@@H](Cc1ccccc1)C(=O)O; NMeNle = CCCC[C@H](NC)C(=O)O; NMeS = CN[C@@H](CO)C(=O)O; hSer = N[C@@H](CCO)C(=O)O; NMeA = CN[C@@H](C)C(=O)O; Dab = NCC[C@H](N)C(=O)O; Dap = NC[C@H](N)C(=O)O; ξC = NC(CS)C(=O)O; Sar = CNCC(=O)O

Tests used:
[1] = target: T1, LK35.2-hPD-L1 cells / PE-labeled PD-1-Ig (Homo sapiens, UniProt Q9NZQ7); experiment: LK35.2-hPD-L1 cell binding high-content screening assay; assay type: cell-based
T1 construct: expressed in transfected cells; host or cells: LK35.2 mouse B cell line
Summary of the method: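 Fluorescent PD-1-Ig binding to PD-L1-expressing LK35.2 cells, imaged after washing. Conditions: 1 nM PE-PD-1-Ig, 37 °C, 1 h, RPMI with 10% fetal calf serum.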

[2] = target: T2, Human PD-L1/PD-1 (Homo sapiens, UniProt Q9NZQ7); experiment: HTRF PD-1-Ig/PD-L1-His binding assay (human PD-L1)
T2 construct: made in house; host or cells: HEK293T
Summary of the method: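 Interaction of Fc-tagged soluble PD-1 with His-tagged soluble PD-L1 is monitored by time-resolved FRET. Donor is europium cryptate anti-Ig (1 nM final) and acceptor is APC anti-His (20 nM final). Assay buffer is dPBS with 0.1% BSA and 0.05% Tween-20.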

[3] = cluster symbol, cell line of CBA not given (LK35.2-hPD-L1 or 293T-hPD-L1), read-out: CBA IC50 cluster
[4] = cluster symbol, read-out: HTRF IC50 cluster
[5] = cell binding assay, cell line not given, cluster symbol, read-out: CBA IC50 cluster

T1 sequence (Q9NZQ7 19-290): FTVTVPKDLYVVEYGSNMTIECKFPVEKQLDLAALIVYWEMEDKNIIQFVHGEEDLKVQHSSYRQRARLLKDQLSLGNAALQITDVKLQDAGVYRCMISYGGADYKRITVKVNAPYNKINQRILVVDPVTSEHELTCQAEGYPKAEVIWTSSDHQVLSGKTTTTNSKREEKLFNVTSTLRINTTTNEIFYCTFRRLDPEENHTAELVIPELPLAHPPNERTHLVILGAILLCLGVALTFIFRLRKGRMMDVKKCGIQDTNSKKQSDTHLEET
T2 sequence (Q9NZQ7 with tags, fused parts or gaps): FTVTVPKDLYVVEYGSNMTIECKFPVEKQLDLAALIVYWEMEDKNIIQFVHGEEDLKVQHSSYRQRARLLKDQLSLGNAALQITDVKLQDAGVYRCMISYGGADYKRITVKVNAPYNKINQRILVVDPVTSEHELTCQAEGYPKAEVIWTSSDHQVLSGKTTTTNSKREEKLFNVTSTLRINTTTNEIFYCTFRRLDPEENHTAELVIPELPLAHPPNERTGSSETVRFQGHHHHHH

| Compound | IC50 [1, 3] [nM] | IC50 [2, 4] [nM] | IC50 [1, 5] [nM] | IC50 ([1]; cell line of CBA not given (LK35.2-hPD-L1 or 293T-hPD-L1), read-out: CBA IC50 value) [nM] | IC50 ([2]; read-out: HTRF IC50 value) [nM] |
| --- | --- | --- | --- | --- | --- |
| CCCC[C@H]1C(=O)N(C)CC(=O)N[C@@H](CC(=O)O)C(=O)N[C@@H](C(C)C)C(=O)N(C)[C@@H](Cc2ccccc2)C(=O)N[C@@H](Cc2ccc(CN)cc2)C(=O)N(C)CC(=O)N[C@@H](Cc2csc3ccccc23)C(=O)N[C@@H](Cc2ccc(O)cc2)C(=O)N[C@@H](CC(C)C)C(=O)N[C@H](C(=O)NCC(N)=O)CSCC(=O)N[C@@H](Cc2ccc(Cl)cc2)C(=O)N(C)[C@@H](Cc2ccccc2)C(=O)N1C [Example 3119] ({CH2CO}-[Phe(4-Cl)][NMeF][NMeNle][Sar]DV[NMeF][Phe(4-CH2NH2)][Sar][Bta]YLCG-NH2; thioether N-13) | 4.78 to 72.9 | 6.76 to 30.3 |  |  |  |
| CCCC[C@H]1C(=O)N(C)CC(=O)N[C@@H](CC(=O)O)C(=O)N[C@@H](C(C)C)C(=O)N(C)[C@@H](Cc2ccccc2)C(=O)N[C@@H](Cc2ccc(O)cc2)C(=O)N(C)CC(=O)N[C@@H](Cc2c[nH]c3ccccc23)C(=O)N[C@@H](Cc2ccc(O)cc2)C(=O)N[C@@H](CC(C)C)C(=O)N[C@H](C(=O)NCC(N)=O)CSCC(=O)N[C@@H](Cc2cc(F)c(F)c(F)c2)C(=O)N(C)[C@@H](Cc2ccccc2)C(=O)N1C [Example 3144] ({CH2CO}-[Phe(3,4,5-F3)][NMeF][NMeNle][Sar]DV[NMeF]Y[Sar]WYLCG-NH2; thioether N-13) | 0.158 to 4.71 | 6.76 to 30.3 |  |  |  |
| CCCC[C@H]1C(=O)N(C)[C@@H](CCCC)C(=O)N[C@@H](CCCNC(=N)N)C(=O)NC(C(=O)NCC(N)=O)CSCC(=O)N[C@@H](Cc2ccc(O)cc2)C(=O)N(C)[C@@H](CO)C(=O)N[C@@H](CC(N)=O)C(=O)N2CCC[C@H]2C(=O)N[C@@H](Cc2cnc[nH]2)C(=O)N[C@@H](CC(C)C)C(=O)N2CCC[C@H]2C(=O)N[C@@H](Cc2c[nH]c3ccccc23)C(=O)N[C@@H](CO)C(=O)N[C@@H](Cc2c[nH]c3ccccc23)C(=O)N1C (stereo partly shown) [Example 9038] ({CH2CO}-Y[NMeS]NPHLPWSW[NMeNle][NMeNle]R[ξC]G-NH2; thioether N-14) |  | 6.76 to 30.3 | 4.78 to 72.9 |  |  |
| CCCC[C@H]1C(=O)N(C)[C@@H](CCCC)C(=O)N[C@@H](CCCNC(=N)N)C(=O)N[C@H](C(=O)NCC(N)=O)CSCC(=O)N[C@@H](Cc2ccccc2)C(=O)N(C)[C@@H](C)C(=O)N[C@@H](CC(N)=O)C(=O)N2CCC[C@H]2C(=O)N[C@@H](Cc2cnc[nH]2)C(=O)N[C@@H](CCC(=O)O)C(=O)N(C)CC(=O)N[C@@H](Cc2c[nH]c3ccccc23)C(=O)N[C@@H](CO)C(=O)N[C@@H](Cc2c[nH]c3ccccc23)C(=O)N1C [Example 1054] ({CH2CO}-F[NMeA]NPHE[Sar]WSW[NMeNle][NMeNle]RCG-NH2; thioether N-14) | 4.78 to 72.9 | 0.385 to 6.74 |  |  |  |
| CCCC[C@H]1C(=O)N(C)[C@@H](CCCC)C(=O)N[C@@H](CCCNC(=N)N)C(=O)NC(C(=O)NCC(N)=O)CSCC(=O)N[C@@H](Cc2ccccc2)C(=O)N(C)[C@@H](C)C(=O)N[C@@H](CC(N)=O)C(=O)N2CCC[C@H]2C(=O)N[C@@H](Cc2cnc[nH]2)C(=O)N[C@@H](CC(C)C)C(=O)N[C@@H](CCNC(=O)C2CCCCC2)C(=O)N[C@@H](Cc2c[nH]c3ccccc23)C(=O)N[C@@H](CO)C(=O)N[C@@H](Cc2c[nH]c3ccccc23)C(=O)N1C (stereo partly shown) [Example 1021] |  |  |  | 262 | 180 |
| CCCC[C@H]1C(=O)N(C)[C@@H](CCCC)C(=O)N[C@@H](CCN)C(=O)N[C@H](C(=O)NCC(N)=O)CSCC(=O)N[C@@H](Cc2ccc(O)cc2)C(=O)N(C)[C@@H](C)C(=O)N[C@@H](CC(N)=O)C(=O)N2CCC[C@H]2C(=O)N[C@@H](CN)C(=O)N[C@@H](CCC(N)=O)C(=O)N2C[C@H](O)C[C@H]2C(=O)N[C@@H](Cc2c[nH]c3ccccc23)C(=O)N[C@@H](CCN)C(=O)N[C@@H](Cc2c[nH]c3ccccc23)C(=O)N1C [Example 5044] ({CH2CO}-Y[NMeA]NP[Dap]Q[Hyp]W[Dab]W[NMeNle][NMeNle][Dab]CG-NH2; thioether N-14) |  | 0.385 to 6.74 | 0.158 to 4.71 |  |  |
| CCCC[C@H]1C(=O)N(C)[C@@H](CCCC)C(=O)N[C@@H](C)C(=O)N[C@H](C(=O)NCC(N)=O)CSCC(=O)N[C@@H](Cc2ccc(O)cc2)C(=O)N(C)[C@@H](C)C(=O)N[C@@H](CC(=O)O)C(=O)N2CCC[C@H]2C(=O)N[C@@H](Cc2cnc[nH]2)C(=O)N[C@@H](CCC(N)=O)C(=O)N2CCC[C@H]2C(=O)N[C@@H](Cc2c[nH]c3ccccc23)C(=O)N[C@@H](CO)C(=O)N[C@@H](Cc2c[nH]c3ccccc23)C(=O)N1C [Example 6024] ({CH2CO}-Y[NMeA]DPHQPWSW[NMeNle][NMeNle]ACG-NH2; thioether N-14) |  | 0.385 to 6.74 | 0.158 to 4.71 |  |  |
| CCCC[C@H]1C(=O)N(C)[C@@H](CCCC)C(=O)N[C@@H](CCCNC(=N)N)C(=O)NC(C(=O)NCC(N)=O)CSCC(=O)N[C@@H](Cc2ccc(O)cc2)C(=O)N(C)[C@@H](C)C(=O)N[C@@H](CC(N)=O)C(=O)N2CCC[C@H]2C(=O)N[C@@H](Cc2cnc[nH]2)C(=O)N[C@@H](CC(C)C)C(=O)N2CCC[C@H]2C(=O)N[C@@H](Cc2c[nH]c3ccccc23)C(=O)N[C@@H](CCO)C(=O)N[C@@H](Cc2csc3ccccc23)C(=O)N1C (stereo partly shown) [Example 9052] ({CH2CO}-Y[NMeA]NPHLPW[hSer][Bta][NMeNle][NMeNle]R[ξC]G-NH2; thioether N-14) |  | 0.385 to 6.74 | 0.158 to 4.71 |  |  |
| CCCC[C@H]1C(=O)N(C)CC(=O)N[C@@H](CC(=O)O)C(=O)N[C@@H](C(C)C)C(=O)N(C)[C@@H](Cc2ccccc2)C(=O)N[C@@H](Cc2ccc(O)cc2)C(=O)N(C)CC(=O)N[C@@H](Cc2cccc(OC)c2)C(=O)N[C@@H](Cc2ccc(O)cc2)C(=O)N[C@@H](CC(C)C)C(=O)N[C@H](C(=O)NCC(N)=O)CSCC(=O)N[C@@H](Cc2ccccc2)C(=O)N(C)[C@@H](Cc2ccccc2)C(=O)N1C [Example 3548] ({CH2CO}-F[NMeF][NMeNle][Sar]DV[NMeF]Y[Sar][Phe(3-OMe)]YLCG-NH2; thioether N-13) |  | > 30.5 | > 74.3 |  |  |
| CCCC[C@H]1C(=O)N(C)CC(=O)N[C@@H](CC(=O)O)C(=O)N[C@@H](C(C)C)C(=O)N(C)[C@@H](Cc2ccccc2)C(=O)N[C@@H](Cc2ccc(O)cc2)C(=O)N(C)CC(=O)N[C@@H](Cc2ccc(Cl)cc2)C(=O)N[C@@H](Cc2ccc(O)cc2)C(=O)N[C@@H](CC(C)C)C(=O)N[C@H](C(=O)NCC(N)=O)CSCC(=O)N[C@@H](Cc2ccccc2)C(=O)N(C)[C@@H](Cc2ccccc2)C(=O)N1C [Example 3546] ({CH2CO}-F[NMeF][NMeNle][Sar]DV[NMeF]Y[Sar][Phe(4-Cl)]YLCG-NH2; thioether N-13) |  | > 30.5 | > 74.3 |  |  |
| CCCC[C@H]1C(=O)N[C@H](CC(=O)O)C(=O)N[C@@H](CC(=O)O)C(=O)N[C@@H](C(C)C)C(=O)N(C)[C@@H](Cc2ccccc2)C(=O)N[C@@H](Cc2ccc(O)cc2)C(=O)N(C)CC(=O)N[C@@H](Cc2c[nH]c3ccccc23)C(=O)N[C@@H](Cc2ccc(O)cc2)C(=O)N[C@@H](CC(C)C)C(=O)N[C@H](C(=O)NCC(N)=O)CSCC(=O)N[C@@H](Cc2ccccc2)C(=O)N(C)[C@@H](Cc2ccccc2)C(=O)N1C [Example 3552] (HELM PEPTIDE1{[O=C(C[*:3])[*:2]].F.[meF].[CCCC[C@@H](C(=O)[*:2])N(C)[*:1]].[dD].D.V.[meF].Y.[Sar].W.Y.L.C.G.[am]}$PEPTIDE1,PEPTIDE1,1:R3-14:R3$$$V2.0) |  | 0.385 to 6.74 | 4.78 to 72.9 |  |  |
| CCCC[C@H]1C(=O)N(C)[C@@H](CCCC)C(=O)N[C@@H](CCCNC(=N)N)C(=O)N[C@H](C(=O)NCC(N)=O)CSCC(=O)N[C@@H](Cc2ccccc2)C(=O)N(C)[C@@H](C)C(=O)N[C@@H](CC(N)=O)C(=O)N2CCC[C@H]2C(=O)N[C@@H](Cc2cnc[nH]2)C(=O)N[C@@H](CC(C)C)C(=O)N2C[C@H](O)C[C@H]2C(=O)N[C@@H](Cc2c[nH]c3ccccc23)C(=O)N[C@@H](CO)C(=O)N[C@@H](Cc2c[nH]c3ccccc23)C(=O)N1C [Example 1087] ({CH2CO}-F[NMeA]NPHL[Hyp]WSW[NMeNle][NMeNle]RCG-NH2; thioether N-14) | 0.158 to 4.71 | 0.385 to 6.74 |  |  |  |
| CCCC[C@H]1C(=O)N(C)CC(=O)N[C@@H](CC(=O)O)C(=O)N[C@@H](C(C)C)C(=O)N(C)[C@@H](Cc2ccccc2)C(=O)N[C@@H](Cc2c(F)c(F)c(F)c(F)c2F)C(=O)N(C)CC(=O)N[C@@H](Cc2c[nH]c3ccccc23)C(=O)N[C@@H](Cc2ccc(O)cc2)C(=O)N[C@@H](CC(C)C)C(=O)N[C@H](C(=O)NCC(N)=O)CSCC(=O)N[C@@H](Cc2ccccc2)C(=O)N(C)[C@@H](Cc2ccccc2)C(=O)N1C [Example 3079] ({CH2CO}-F[NMeF][NMeNle][Sar]DV[NMeF][Phe(F5)][Sar]WYLCG-NH2; thioether N-13) | 4.78 to 72.9 | > 30.5 |  |  |  |
| CCCC[C@H]1C(=O)N(C)[C@@H](CCCC)C(=O)N[C@@H](CCCNC(=N)N)C(=O)N[C@H](C(=O)NCC(N)=O)CSCC(=O)N[C@@H](Cc2cccc(C(F)(F)F)c2)C(=O)N(C)[C@@H](C)C(=O)N[C@@H](CC(N)=O)C(=O)N2CCC[C@H]2C(=O)N[C@@H](CN)C(=O)N[C@@H](CC(C)C)C(=O)N2C[C@H](O)C[C@H]2C(=O)N[C@@H](Cc2c[nH]c3ccccc23)C(=O)N[C@@H](CO)C(=O)N[C@@H](Cc2c[nH]c3ccccc23)C(=O)N1C [Example 7034] ({CH2CO}-[Phe(3-CF3)][NMeA]NP[Dap]L[Hyp]WSW[NMeNle][NMeNle]RCG-NH2; thioether N-14) |  | 0.385 to 6.74 | 4.78 to 72.9 |  |  |
